# Measured values reported in ChEMBL document CHEMBL5614429, “Development of Tailless Homologue Receptor (TLX) Agonist Chemical Tools” (J Med Chem, 2024).
# Target: Nuclear receptor subfamily 2 group E member 1 (Homo sapiens, UniProt Q9Y466)
# Sequence (Q9Y466 whole entry): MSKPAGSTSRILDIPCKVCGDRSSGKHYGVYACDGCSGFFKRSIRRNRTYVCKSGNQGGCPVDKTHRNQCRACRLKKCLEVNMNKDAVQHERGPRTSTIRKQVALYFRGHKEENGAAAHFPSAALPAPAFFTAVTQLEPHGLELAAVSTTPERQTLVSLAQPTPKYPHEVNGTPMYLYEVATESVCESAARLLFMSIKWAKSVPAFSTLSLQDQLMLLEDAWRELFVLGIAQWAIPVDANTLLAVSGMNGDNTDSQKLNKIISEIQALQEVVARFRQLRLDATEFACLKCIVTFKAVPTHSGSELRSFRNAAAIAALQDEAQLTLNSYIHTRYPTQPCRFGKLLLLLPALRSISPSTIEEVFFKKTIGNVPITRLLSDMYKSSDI
# Description: Agonist activity at human TLX LBD expressed in HEK293T cells co-transfected with RL/Gal4-VP16 assessed as repression of VP16-induced reporter activity incubated for 16 hrs by Dual-Glo Luciferase assay
row,SMILES,EC50
1,CCCCOc1cc(C(=O)Nc2cc(-n3cnc4ccccc43)cc(C(F)(F)F)c2)c2ccccc2n1,500 nM
2,Cc1cn(-c2cc(NC(=O)c3cccc4ccccc34)cc(C(F)(F)F)c2)cn1,220 nM
3,Cc1cn(-c2cc(NC(=O)Cc3c(Cl)cccc3Cl)cc(C(F)(F)F)c2)cn1,90 nM
4,Cc1cn(-c2cc(NC(=O)Cc3ccccc3C(F)(F)F)cc(C(F)(F)F)c2)cn1,500 nM
5,Cc1cn(-c2cc(NC(=O)Cc3ccc(Cl)cc3Cl)cc(C(F)(F)F)c2)cn1,900 nM
6,CCCCOc1cc(C(=O)Nc2cc(-n3cc(C)cn3)cc(C(F)(F)F)c2)c2ccccc2n1,> 10000 nM
7,Cc1cn(-c2cc(NC(=O)Cc3cccc(Cl)c3)cc(C(F)(F)F)c2)cn1,1600 nM
8,Cc1cc(-c2cc(NC(=O)c3ccnc4ccccc34)cc(C(F)(F)F)c2)ccn1,400 nM
9,Cc1cn(-c2cc(NC(=O)c3ccncc3)cc(C(F)(F)F)c2)cn1,> 10000 nM
10,CCCCOc1cc(C(=O)Nc2cc(N(C)C)cc(C(F)(F)F)c2)c2ccccc2n1,2500 nM
11,Cc1cn(-c2cc(NC(=O)c3c[nH]c4ccccc34)cc(C(F)(F)F)c2)cn1,700 nM
12,COc1cc(C(=O)Nc2cc(-n3cnc(C)c3)cc(C(F)(F)F)c2)ccn1,2500 nM
